From US20240277732A1, “COMPOSITIONS AND METHODS FOR TREATING BRAIN-GUT DISORDERS” (Enterin, Inc., priority 2018, published 2024)

Experiments:
[1] = Intranasal pharmacokinetics in CSF; type: in vivo, Sprague Dawley rats; conditions: 0.5 mg/kg IN, SD rats
Source text: (§1) The purpose of this example was to evaluate the in vivo distribution and function of aminosterols, such as Aminosterol 1436 and squalamine, following intranasal administration. This experiment relates to the amount of drug needed to obtain a therapeutic result, based on an IN route of administration. The results described below detail that aminosterols such as Aminosterol 1436 act at the level of the hypothalamus following in vivo administration, regardless of the route of administration.

[2] = Intranasal pharmacokinetics in plasma; type: in vivo, Sprague Dawley rats; conditions: plasma, 0.5 mg/kg IN dose, SD rats
Source text: as §1

[3] = tested on: individuals with mild constipation; conditions: cited from earlier work
PD population = conditions: short term placebo controlled trial; cited from earlier work
A53T and WT mice = assay: In vivo fecal pellet output; parameters: species or system mouse
Description: In vivo fecal pellet output: Mice were subjected to the FPO test 1 day prior to the start of dosing with squalamine or vehicle (sterile water) (day 0). Mice were fasted for one hour and then given access to food one hour before FPO testing. On days 1-5 mice were fasted for one hour prior to oral gavage with vehicle or 20, 40, 80, or 120 mg/kg squalamine. Oral gavage occurred between 10:00 to 11:00 am daily. On day 5, the FPO test was performed 1 hour after the final dose was administered. Total number of stool pellets produced in the first 15 min and over a 60 min period was measured in each group. Stool water content was measured by comparing wet and dry weights of the stool.
In Vivo Fecal Pellet Output: Feeding of squalamine increased fecal pellet output, without substantially increasing water content, in vivo. To extend the ex vivo studies to the animal, both A53T and WT mice (N=10 mice/group/dose) were administered squalamine orally by gavage for 5 days (Day 1 to Day 5), at a range of doses from 0, 20, 40, 80 and 120 mg/kg. Fecal pellet output (FPO) within the first 15 minutes was measured following the gavage of vehicle control (on Day 0) or squalamine (on Day 5, at doses of 0, 20, 40, 80, and 120 mg/kg). There was no significant difference in the FPO in the first 15 min in WT and A53T mice between Days 0 and 5, in the groups receiving only vehicle (P>0.05). […] An increase in colonic motility should decrease the time of the stool within the colon and thereby increase the moisture content of the fecal pellets. […] Thus, squalamine appears to increase colonic transit in vivo.

[4] = tested on: myenteric intrinsic primary afferent neurons (IPANs); assay: Whole-cell patch clamp of IPANs, divided hemi-dissection preparation of FVB PD mouse; type: cell-based
Description: Whole-cell Patch Clamp: Whole-cell patch clamp was performed on a hemi-dissected myenteric plexus preparation as previously described.
IPAN excitability: PD model mice have reduced IPAN excitability. To determine the mechanism by which squalamine stimulated intestinal motility, electrophysiological studies on single neurons within the intact myenteric plexus of PD mice and corresponding control animals were conducted using published methods. In this series of studies a mouse α-synuclein knock-out model that expressed four copies of human A53T α-synuclein driven by the endogenous α-synuclein promoter (FVB PD), with the control (FVB control) represented by a strain engineered to express two copies of the normal human α-synuclein protein, was used.
IPANs from FVB PD animals were less excitable than IPANs recorded from FVB controls. The sample AP threshold (mean SD (N)) was 46% smaller for FVB control (32.2±20.0 (16)) compared to FVB PD (59.2±46.1 (20)). The number of action potentials produced by a current 2× the threshold intensity was 145% larger, 3.9±5.1 (16) for FVB control versus 1.6±0.6 (19) for FVB PD. The area under of the curve for the sAHP was 42% smaller −49.5±63.7 (16) versus −85.5±78.2 (19). RMP was depolarized by 10% for the FVB control, −56±10 (16) versus −62±6 (20).
Myenteric Primary Afferent Neuron Excitation: Squalamine excites myenteric primary afferent neurons. The effect of squalamine on the excitability of an isolated intestinal segment from the FVB PD mouse was explored using divided hemi-dissection preparations so that neurons are exposed for only half the area of an opened small intestinal segment. In this experiment, the inquiry was whether squalamine influenced the activity of the IPAN through direct interaction or indirectly, by stimulating release of epithelial mediators that influenced IPAN behaviour. Addition of squalamine (30 μM) to Krebs buffer in either the epithelial or the myenteric plexus compartments of the divided hemi-dissection preparation increased IPAN excitability. […] Addition of squalamine decreased the area under the curve of the sAHP by 77% from 86.8±88.2 to 20.3±25.3 mV·s, and depolarised RMP by 12% from −62±7 to −54±6 mV.

[5] = tested on: patients with PD and constipation; assay: Phase 2 trial Stage 2: bowel function under daily oral dosing (stool diary, PAC-QOL, PAC-SYM); type: in vivo, human; conditions: patients with baseline ≥1 CSBM/week
Description: Following successful screening, all subjects underwent a 14-day run-in period where the degree of constipation was assessed through a validated daily log (Zinsmeister et al. 2013) establishing baseline CSBMs/week. Subjects with an average of <3 CSBMs/week proceeded to dosing.
In Stage 2, 34 patients were evaluated.
The primary efficacy outcome variable was whether or not a subject was a “success” or “failure”. This is an endpoint based on subject diary entries for the “fixed dose” period prior to the endpoint assessment defined as average complete stool frequency increase by 1 or more over baseline, or 3 or more complete spontaneous stools/week. The subject was deemed a “success” if s/he met one or more of the criteria listed above, otherwise the subject was deemed a “failure”. The primary analysis was based on all subjects with a baseline assessment and an assessment at the end of the “fixed-dose” period and was a comparison of the proportion of successes with 0.10 (the null hypothesis corresponding to no treatment effect).

[6] = tested on: colonic propagating contractile clusters (PCCs); assay: Ex vivo colon motility with intraluminal squalamine, control mouse strains
Description: Ex vivo colon motility: For the ex vivo colonic motility experiments, the colon was excised and placed within an organ-bath perfusion chamber filled with warmed, oxygenated Krebs buffer or physiological saline (35° C., 95% 02, 5% CO2). The colon was flushed and cannulated at the oral and anal ends to a manifold and syringe to allow inflow of oxygenated Krebs buffer (or physiological saline) or Krebs and squalamine and to maintain intraluminal pressure. The height of the inflow tube at baseline measurements was parallel to the height of the colon in the organ bath (1.1 cm). Mechanical threshold defined an inflow pressure great enough to generate a contraction in under 30 sec (1.8 cm). Recordings in the first portion of the study were measured at a mechanical threshold causing a pressure differential of 2 hPa (cm H2O). Inflow was raised 2-3 hPa above baseline and outflow was raised a minimum of 0.2 hPa above inflow. Motor patterns were recorded using a Microsoft LifeCam 3000 web camera or a Logitech Quickcam Pro camera positioned 7-8 cm above the tissue. Videos were recorded during a 20-minute Krebs control and a 20-minute Krebs+squalamine period in which solutions were added to the inflow syringe.
Spatiotemporal Maps: Video recordings were used to construct spatiotemporal maps (STmaps) using edge detection software. Parameters of motor patterns including, velocity, amplitude, and frequency were measured using ImageJ and Matlab (Version 12) software.
Statistical Analysis: Effects of squalamine on motility and IPAN excitability in WT and PD model mice were assessed in paired experiments following Krebs control and subsequent squalamine exposure. Unpaired comparisons were performed for experiments comparing PD control and PD model strains. Percent difference was calculated by (treatment-control)/control. Data are presented as mean±SEM. Ex vivo statistical comparisons were performed using paired or unpaired, two-tailed t-tests or 1-way ANOVA using Graphpad Prism software (Version 7.0). In vivo studies were analysed using 1-way and 2-way ANOVA. Statistical significance was determined when p<0.05.

Compound: CC(C)[C@@H](CC[C@@H](C)[C@H]1CC[C@H]2[C@@H]3[C@H](O)C[C@H]4C[C@@H](NCCCNCCCCN)CC[C@]4(C)[C@H]3CC[C@]12C)OS(=O)(=O)O.C[C@H](O)C(=O)O.O [squalamine lactate]
- presence in CSF [1]: No squalamine lactate or Aminosterol 1436 was found in CSF
- AUCInf [2]: 7863 ng·h/mL
- AUC_% Extrap_obs [2]: 32.7%
- AUClast [2]: 5296 ng·h/mL
- AUClast/D [2]: 10600 kg·ng·h/mL/mg
- Cmax [2]: 1001 ng/mL
- MRTInf_obs [2]: 7.12 h
- T1/2 [2]: 4.55 h
- Tmax [2]: 1.00 h

Compound: polyethylene glycol [polyethylene glycol (Magrogol)]
- stool frequency and consistency [3]: shown to provide benefit

Compound: CCCCC(F)(F)[C@@]1(O)CC[C@H]2[C@@H](CC(=O)[C@@H]2CCCCCCC(=O)O)O1 [Lubiprostone]
- share of treated in whom effective (PD population): about 50%

Compound: CC(C)[C@@H](CC[C@@H](C)[C@H]1CC[C@H]2[C@@H]3[C@H](O)C[C@H]4C[C@@H](NCCCNCCCCN)CC[C@]4(C)[C@H]3CC[C@]12C)OS(=O)(=O)O [squalamine]
- stool water content (A53T and WT mice; A53T mice, 80 and 120 mg/kg (P=0.023 and 0.0004)): significantly increased water content
- FPO in the first 15 min, Day 5 versus Day 0 (A53T and WT mice; A53T mice, oral gavage 5 days, 20, 40 and 80 mg/kg (P<0.005, P<0.0001, P<0.01)): significantly increased FPO
- fecal pellet output (A53T and WT mice; PD and wild type mice, 40 mg/kg/d for 5 days): increased their fecal pellet output
- stool water content (A53T and WT mice; WT mice, 80 mg/kg (P=0.025)): significantly increased water content
- FPO in the first 15 min, Day 5 versus Day 0 (A53T and WT mice; WT mice, oral gavage 5 days, 40 and 120 mg/kg (P<0.01 and P<0.05)): significantly increased FPO
- decrease of AP threshold ([4]; added to the epithelium): 44%
- decrease of sAHP AUC ([4]; added to the epithelium): 77%
- increase of number of APs at 2× threshold current ([4]; added to the epithelium): 87%
- number of APs at 2× threshold current ([4]; added to the epithelium, before 1.6±0.6): 3.1±0.7
- decrease of AP threshold ([4]; added to the myenteric plexus): 37%
- decrease of sAHP AUC ([4]; added to the myenteric plexus): 87%
- number of APs at 2× threshold current ([4]; added to the myenteric plexus, before 1.4±0.5): 4.4±2.8
- area under the curve of the sAHP ([4]; added to the myenteric plexus, before −71.9±60.1): −9.6±15.1 mV·s
- mean prokinetic dose [5]: 120 mg
- increase of PCC velocity ([6]; C57BL/6 (P<0.05)): 38%
- increase of PCC amplitude ([6]; C57BL/6 (P=0.27)): 1%
- increase of PCC frequency ([6]; C57BL/6 (P=0.27)): 51%
- PCC frequency ([6]; C57BL/6, control 0.007±0.001): 0.010±0.003 Hz
- PCC amplitude ([6]; C57BL/6, control 0.66±0.06): 0.70±0.07 cm
- PCC velocity ([6]; C57BL/6, control 1.31±0.10): 1.80±0.20 mm/s
- increase of PCC velocity ([6]; CD-1 (P<0.01)): 81%
- increase of PCC frequency ([6]; CD-1 (P=0.06)): 63%
- increase of PCC amplitude ([6]; CD-1 (P=0.56)): 12%
- increase of PCC velocity ([6]; Swiss Webster (P<0.0001)): 45%
- increase of PCC frequency ([6]; Swiss Webster (P<0.01)): 35%
- decrease of PCC amplitude ([6]; Swiss Webster (P=0.65)): 3%
